US20090124819A1, “2-SUBSTITUTED VITAMIN D DERIVATIVES” (WISCONSIN ALUMNI RESEARCH FOUNDATION, priority 2001, published 2009)

Each molecule was assayed against T1, bovine thymus VDR (Bos taurus, UniProt Q28037) (assay: Binding to bovine thymus vitamin D receptor (VDR), displacement of [3H]-1α,25-dihydroxyvitamin D3). Details: X=(y/x)×100 from concentrations inhibiting 50% of [3H]-1α,25-dihydroxyvitamin D3 binding; 1α,25-dihydroxyvitamin D3 taken as 100.
T1 construct: Bovine thymus VDR was purchased from Yamasa Biochemical; purchased Yamasa Biochemical (Choshi, Chiba Prefecture, Japan) lot; 112831; host or cells: bovine thymus
T1 sequence (Q28037 1-426): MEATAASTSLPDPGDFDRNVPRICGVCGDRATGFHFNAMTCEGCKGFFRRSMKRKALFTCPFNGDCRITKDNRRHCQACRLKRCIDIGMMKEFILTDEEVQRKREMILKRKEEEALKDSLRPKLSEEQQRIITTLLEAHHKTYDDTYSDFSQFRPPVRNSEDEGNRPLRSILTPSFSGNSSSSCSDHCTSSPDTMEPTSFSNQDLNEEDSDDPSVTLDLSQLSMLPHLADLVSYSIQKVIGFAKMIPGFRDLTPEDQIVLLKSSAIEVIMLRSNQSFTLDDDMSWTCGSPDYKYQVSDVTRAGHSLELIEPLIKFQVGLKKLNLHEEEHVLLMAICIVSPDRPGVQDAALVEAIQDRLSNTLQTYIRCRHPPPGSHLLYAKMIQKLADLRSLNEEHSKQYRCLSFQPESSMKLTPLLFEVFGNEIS
Method: The capability of the vitamin D derivatives of the present invention to bind to bovine thymus VDR was tested.
The vitamin D derivatives of the present invention used were the compounds synthesized in the above-described examples, i.e., (5Z,7E)-(1S,3R)-2,2-dimethyl-9,10-seco-5,7,10(19)-cholestatrien-1,3,25-triol (compound 21), (5Z,7E)-(1R,3S)-2,2-dimethyl-9,10-seco-5,7,10(19)-cholestatrien-1,3,25-triol (compound 22), (5Z,7E)-(1S,3S)-2,2-dimethyl-9,10-seco-5,7,10(19)-cholestatrien-1,3,25-triol (compound 23), and (5Z,7E)-(1R,3R)-2,2-dimethyl-9,10-seco-5,7,10(19)-cholestatrien-1,3,25-triol (compound 24).
In connection with each of compounds 21 to 24 and 1α,25-dihydroxyvitamin D3 (used as a standard), ethanol solutions at various concentrations were prepared in the following manner: In the case of 1α,25-dihydroxyvitamin D3, serial dilutions were prepared at concentrations of 5 nanograms, 500 picograms, 250 picograms, 125 picograms, 63 picograms, 32 picograms, 16 picograms, 8 picograms, 4 picograms, 2 picograms, 1 picogram, 0.5 picogram, and 0.25 picogram as the amount of the compound contained in 50 microliters. In the case of the 1α,3β-compound and the 1α,3α-compound for the configurations of the substituents at the 1-position and the 3-position, serial dilutions were prepared at concentrations of 500 nanograms, 50 nanograms, 25 nanograms, 13 nanograms, 6.3 nanograms, 3.2 nanograms, 1.6 nanograms, 800 picograms, 400 picograms, 200 picograms, 20 picograms, and 2 picograms. In the case of the 1β,3β-compound and the 1β,3α-compound for the configurations of the substituents at the 1-position and the 3-position, serial dilutions were prepared at concentrations of 500 nanograms, 50 nanograms, 5 nanograms, 500 picograms, and 50 picograms.
Bovine thymus VDR was purchased from Yamasa Biochemical (Choshi, Chiba Prefecture, Japan; lot. 112831), and one ampoule thereof (ca. 25 mg) was dissolved in 55 ml of 0.05 M phosphate-0.5 M potassium buffer (pH 7.4).
The ethanol solution […] of each of compounds 21 to 24 or 1α,25-dihydroxyvitamin D3 and the receptor solution (500 μl) were placed in a test tube, and pre-incubated for 1 hour at room temperature. Then, a [^3H]-1α,25-dihydroxyvitamin D3 solution (50 μl) was added at a final concentration of 0.1 nM, and the mixture was incubated overnight at 4° C. Dextran-coated charcoal was added to the reaction mixture, followed by mixing. […] The supernatant (500 μl) was mixed with ACS-II (9.5 ml) (Amersham, England) for radioactivity measurement.
The relative VDR-binding potency of each of Compounds 21 to 24 was calculated from the following equation, with the VDR-binding potency of 1α,25-dihydroxyvitamin D3 being taken as 100. […]

Point of comparison: C=C1/C(=C\C=C2/CCC[C@@]3(C)C2CCC3[C@H](C)CCCC(C)(C)O)C[C@H](O)C(C)(C)[C@@H]1O (stereo partly drawn) [Compound 23, (5Z,7E)-(1S,3S)-2,2-Dimethyl-9,10-seco-5,7,10(19)-cholestatrien-1,3,25-triol], “Binding potency (relative VDR-binding potency)” value 0.06. Against it:
- C=C1/C(=C\C=C2/CCC[C@@]3(C)C2CCC3[C@H](C)CCCC(C)(C)O)C[C@@H](O)C(C)(C)[C@@H]1O (stereo partly drawn) [Compound 21, (5Z,7E)-(1S,3R)-2,2-Dimethyl-9,10-seco-5,7,10(19)-cholestatrien-1,3,25-triol] — higher, 3
- C=C1C(=CC=C2CCCC3(C)C2CCC3C(C)CCCC(C)(C)O)CC(O)C(C)(C)C1O [Compound 22, (5Z,7E)-(1R,3S)-2,2-Dimethyl-9,10-seco-5,7,10(19)-cholestatrien-1,3,25-triol] — lower, 0.005

For C=C1/C(=C\C=C2/CCC[C@@]3(C)C2CCC3[C@H](C)CCCC(C)(C)O)C[C@@H](O)C(C)(C)[C@H]1O (stereo partly drawn) [Compound 24, (5Z,7E)-(1R,3R)-2,2-Dimethyl-9,10-seco-5,7,10(19)-cholestatrien-1,3,25-triol], the “Binding potency (relative VDR-binding potency)” value was under 0.001.
